Laboratory results taken from patent US10344054B2, “Angiotensin-1-receptor antagonists” (Ferring B.V., priority 2016, dated 2019).
Residues, ends and D or L forms follow the SMILES beside them.

Columns and labels:
hAT1R [1] = molecular target: T1, hAT1R (Homo sapiens, UniProt P30556); experiment: FLIPR calcium flux assay, Part II: antagonist activity against Angiotensin II; type: cell-based; conditions: for Emax: read-out: hAT1R Antagonist Efficacy Antag (%) Ave; for IC50: read-out: hAT1R Antagonist IC50 Ave; for hAT1R Antagonist Efficacy Antag (%) Ave: Angiotensin II 10 nM final concentration
T1 sequence (P30556 1-359): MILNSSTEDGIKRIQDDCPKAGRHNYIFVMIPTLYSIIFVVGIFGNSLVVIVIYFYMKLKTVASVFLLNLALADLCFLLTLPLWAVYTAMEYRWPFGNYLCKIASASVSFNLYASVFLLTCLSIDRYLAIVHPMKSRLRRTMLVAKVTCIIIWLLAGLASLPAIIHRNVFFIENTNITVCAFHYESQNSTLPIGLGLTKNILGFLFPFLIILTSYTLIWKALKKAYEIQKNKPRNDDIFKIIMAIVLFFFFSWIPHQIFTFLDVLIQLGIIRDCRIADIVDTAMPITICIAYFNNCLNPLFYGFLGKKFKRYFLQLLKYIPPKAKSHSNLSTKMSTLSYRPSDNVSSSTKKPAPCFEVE
Protocol: (§1) AT1 receptor (AT1R) agonists increase intracellular flux of calcium ions. AT1R antagonists can reduce the agonist effect. […] Compounds were first tested for agonism (Part I) followed by addition of the AT1R agonist angiotensin II to test for antagonist activity (Part II). This assay used a stable hAT1R expressing cell line (ChanTest hAT1R; ChanTest Corp A628). Intracellular flux of calcium in response to agonist was measured through real-time measurement of fluorescence induced through the interaction of Ca2+ (released from intracellular stores) and calcium-sensitive dye. In Part I, cells were exposed to varying concentrations of test compounds and immediately measured for agonist activity (EC50 and Efficacy).
(§2) ChanTest hAT1R stable cells were maintained in Ham's F12 containing 10% (v/v) heat inactivated fetal bovine serum (FBS-HI), 4 mM Glutamax, 1% NEAA, 50 ng/mL plasmocin, 400 μg/mL G418 at 37° C. under 5% CO2 in a humidified atmosphere.
(§3) For FLIPR assay, ChanTest hAT1R cells were trypsinized with 6 ml of Trypsin EDTA solution and harvested in phenol-red free DMEM containing 10% FBS-HI, 4 mM Glutamax and counted, spun down and resuspended in the same medium. The cell suspension was added to the wells of 384-well black PDL clear bottom plates at 2.5×10^4 cells/well, 20 μl/well.
(§4) Preparation of Loading Buffer:
(§5) • Loading Buffer: 1 vial of Calcium 5 Bulk Assay reagent was dissolved in 100 ml of 1× HBSS-20 mM Hepes buffer. • Probenecid was resuspended at 1 M in 1 M NaOH. Once the probenecid had gone into solution, an equal volume of H2O was added to make a solution of 500 mM followed by a 1:100 dilution in the Loading Buffer for a working concentration of 5 mM. The pH was adjusted to 7.4 using 1 M NaOH. Loading the Cells with Loading Buffer • Cell plates were removed from the incubator and 25 μl of Loading Buffer containing probenecid (5 mM) added to each well. • Plates were incubated for 1 hour at 37° C. under 5% CO2 in a humidified atmosphere. […] The remaining steps of the assay were carried forward by FLIPR Tetra. A baseline reading was taken at 1-second (s) intervals for 10 s followed by the addition of 5 μl of 10× compounds. The compound-induced fluorescence signal was then measured for 3 minutes with readings taken at 1-s intervals. • The cell plate was removed from the FLIPR and set aside for an additional 17 minutes. • The cell plate was then transferred back to the FLIPR Tetra, along with the 384 well Angiotensin II agonist dilution plate. A baseline reading was taken at 1-second (s) intervals for 10 seconds, followed by the addition of 5.5 μl of 10× Angiotensin II agonist. The agonist-induced fluorescence signal was then measured for 3 minutes with readings taken at 1-s intervals. • Overall, each well in the FLIPR assay was composed of the following components in a total volume of 55.5 μl:
(§6) Time-course results from the FLIPR Calcium 5 assay were expressed as relative fluorescence light units (RFU). The maximum minus minimum values (Max−Min) were used to quantify the strength of the signal. Mean RFU were calculated from replicate values and plotted on the y-axis versus compound concentration on a logarithmic scale on the x-axis, and a single-binding site, four parameter concentration response model: (MIN+((MAX−MIN)/(1+((EC50/x)^Hill)))), was used to perform non-linear regression analysis, generating concentration response curves. Reported parameters included agonist potency EC50 (the concentration causing half-maximal agonist response), antagonist potency IC50 (the concentration causing half-maximal inhibition of the agonist response for antagonist compounds) and efficacy (% MPE: percent of the maximal possible effect).

hAT1R [2] = molecular target: T1, hAT1R; experiment: FLIPR calcium flux assay, Part I: agonist activity; type: cell-based; conditions: ChanTest hAT1R stable cells; % MPE, percent of the maximal possible effect; read-out: hAT1R Agonist Efficacy Agonist (%) Ave
Protocol: as §1, §2, §3, §4, §5, §6

Row | Structure (SMILES) | Emax (hAT1R [1]) [%] | IC50 (hAT1R [1]) [nM] | Emax (hAT1R [2]) [%]
1 | CNCC(=O)N[C@@H](CCCNC(=N)N)C(=O)N[C@H](C(=O)N[C@@H](Cc1ccc(O)cc1)C(=O)N[C@H](C(=O)N[C@@H](Cc1c[nH]cn1)C(=O)N1CCC[C@H]1C(=O)N[C@H](Cc1c(C)cccc1C)C(=O)O)C(C)C)C(C)C [Compound 8, Sar-Arg-Val-Tyr-Val-His-Pro-(D-Phe(2,6-diMe))—OH] (HELM PEPTIDE1{[Sar].R.V.Y.V.H.P.[Cc1cccc(C)c1C[C@@H](N[*:1])C(=O)O]}$$$$V2.0) | 101 | 8.5 | 3
2 | CNCC(=O)N[C@@H](CCCNC(=N)N)C(=O)N[C@H](C(=O)N[C@@H](Cc1ccc(O)cc1)C(=O)N[C@@H](Cc1ccc(N)cc1)C(=O)N[C@@H](Cc1c[nH]cn1)C(=O)N1CCC[C@H]1C(=O)N[C@H](Cc1ccccc1Cl)C(=O)O)C(C)C [Compound 20, Sar-Arg-Val-Tyr-Aph-His-Pro-(D-Phe(2-Cl))—OH] (HELM PEPTIDE1{[Sar].R.V.Y.[Nc1ccc(C[C@H](N[*:1])C(=O)[*:2])cc1].H.P.[O=C(O)[C@@H](Cc1ccccc1Cl)N[*:1]]}$$$$V2.0) | 99 | 5.2 | 5
3 | CNCC(=O)N[C@@H](CCCNC(=N)N)C(=O)N[C@H](C(=O)N[C@@H](Cc1ccc(O)cc1)C(=O)N[C@H](C(=O)N[C@@H](Cc1c[nH]cn1)C(=O)N1CCC[C@H]1C(=O)N[C@H](Cc1ccccc1C(F)(F)F)C(=O)O)C(C)C)C(C)C [Compound 3, Sar-Arg-Val-Tyr-Val-His-Pro-(D-Phe(2-CF3))—OH] (HELM PEPTIDE1{[Sar].R.V.Y.V.H.P.[O=C(O)[C@@H](Cc1ccccc1C(F)(F)F)N[*:1]]}$$$$V2.0) | 99 | 23.6 | 5
4 | CNCC(=O)N[C@@H](CCCNC(=N)N)C(=O)N[C@H](C(=O)N[C@@H](Cc1ccc(O)cc1)C(=O)N[C@H](C(=O)N[C@@H](Cc1c[nH]cn1)C(=O)N1CCC[C@H]1C(=O)N[C@H](Cc1cccc2ccccc12)C(=O)O)C1CCCCC1)C(C)C [Compound 34, Sar-Arg-Val-Tyr-Chg-His-Pro-(D-1Nal)-OH] (HELM PEPTIDE1{[Sar].R.V.Y.[O=C([C@@H](N[*:1])C1CCCCC1)[*:2]].H.P.[O=C(O)[C@@H](Cc1cccc2ccccc12)N[*:1]]}$$$$V2.0) | 100 | 15.5 | 5
5 | CCCCC(=O)N(Cc1ccc(-c2ccccc2-c2nnn[nH]2)cc1)[C@H](C(=O)O)C(C)C [Ref. Cpd. 4, Valsartan, reference compound] | 100 | – | 0.7
6 | CNCC(=O)N[C@@H](CCCNC(=N)N)C(=O)N[C@H](C(=O)N[C@@H](Cc1ccc(O)cc1)C(=O)N[C@H](C(=O)N[C@@H](Cc1c[nH]cn1)C(=O)N1CCC[C@H]1C(=O)N[C@H](Cc1cccc2ccccc12)C(=O)O)C1CCCC1)C(C)C [Compound 15, Sar-Arg-Val-Tyr-Cpg-His-Pro-(D-1Nal)-OH] (HELM PEPTIDE1{[Sar].R.V.Y.[O=C([C@@H](N[*:1])C1CCCC1)[*:2]].H.P.[O=C(O)[C@@H](Cc1cccc2ccccc12)N[*:1]]}$$$$V2.0) | 100 | 4.6 | 6

The next lines start with the values.

Row | Emax (hAT1R [1]) [%] | IC50 (hAT1R [1]) [nM] | Emax (hAT1R [2]) [%] | Structure (SMILES)
7 | 100 | 3.4 | 5 | CNCC(=O)N[C@@H](CCCNC(=N)N)C(=O)N[C@H](C(=O)N[C@@H](Cc1ccc(O)cc1)C(=O)N[C@@H](Cc1ccc(O)cc1)C(=O)N[C@@H](Cc1c[nH]cn1)C(=O)N1CCC[C@H]1C(=O)N[C@H](Cc1cccc2ccccc12)C(=O)O)C(C)C [Compound 12, Sar-Arg-Val-Tyr-Tyr-His-Pro-(D-1Nal)-OH]
8 | 99 | 5 | 6 | CNCC(=O)N[C@@H](CCCNC(=N)N)C(=O)N[C@H](C(=O)N[C@@H](Cc1ccc(O)cc1)C(=O)N[C@@H](Cc1ccccc1)C(=O)N[C@@H](Cc1c[nH]cn1)C(=O)N1CCC[C@H]1C(=O)N[C@H](Cc1cccc2ccccc12)C(=O)O)C(C)C [Compound 16, Sar-Arg-Val-Tyr-Phe-His-Pro-(D-1Nal)-OH] (HELM PEPTIDE1{[Sar].R.V.Y.F.H.P.[O=C(O)[C@@H](Cc1cccc2ccccc12)N[*:1]]}$$$$V2.0)
9 | 99 | 14.3 | 25 | CC[C@H](C)[C@H](NC(=O)[C@H](Cc1ccc(O)cc1)NC(=O)[C@@H](NC(=O)[C@H](CCCNC(=N)N)NC(=O)CNC)C(C)C)C(=O)N[C@@H](Cc1c[nH]cn1)C(=O)N1CCC[C@H]1C(=O)N[C@H](Cc1ccccc1)C(=O)O [Ref. Cpd. 2, Sar-Arg-Val-Tyr-Ile-His-Pro-D-Phe-OH, reference compound]
10 | 99 | 10.6 | 2 | CNCC(=O)N[C@@H](CCCNC(=N)N)C(=O)N[C@H](C(=O)N[C@@H](Cc1ccc(O)cc1)C(=O)N[C@H](C(=O)N[C@@H](Cc1c[nH]cn1)C(=O)N1CCC[C@H]1C(=O)N[C@H](Cc1ccccc1Cl)C(=O)O)[C@@H](C)OC)C(C)C [Compound 21, Sar-Arg-Val-Tyr-Thr(Me)-His-Pro-(D-Phe(2-Cl))—OH]
11 | 99 | 7 | 4 | CNCC(=O)N[C@@H](CCCNC(=N)N)C(=O)N[C@H](C(=O)N[C@@H](Cc1ccc(O)cc1)C(=O)N[C@@H](Cc1cscn1)C(=O)N[C@@H](Cc1c[nH]cn1)C(=O)N1CCC[C@H]1C(=O)N[C@H](Cc1ccccc1Cl)C(=O)O)C(C)C [Compound 24, Sar-Arg-Val-Tyr-(Ala(4-Thz))-His-Pro-(D-Phe(2-Cl))—OH] (HELM PEPTIDE1{[Sar].R.V.Y.[O=C([C@H](Cc1cscn1)N[*:1])[*:2]].H.P.[O=C(O)[C@@H](Cc1ccccc1Cl)N[*:1]]}$$$$V2.0)
12 | 99 | 5 | 3 | CNCC(=O)N[C@@H](CCCNC(=N)N)C(=O)N[C@H](C(=O)N[C@@H](Cc1ccc(O)cc1)C(=O)N[C@@H](Cc1ccsc1)C(=O)N[C@@H](Cc1c[nH]cn1)C(=O)N1CCC[C@H]1C(=O)N[C@H](Cc1ccccc1Cl)C(=O)O)C(C)C [Compound 22, Sar-Arg-Val-Tyr-(3-Thi)-His-Pro-(D-Phe(2-Cl))—OH] (HELM PEPTIDE1{[Sar].R.V.Y.[O=C([C@H](Cc1ccsc1)N[*:1])[*:2]].H.P.[O=C(O)[C@@H](Cc1ccccc1Cl)N[*:1]]}$$$$V2.0)
13 | 99 | 10.6 | 5 | CNCC(=O)N[C@@H](CCCNC(=N)N)C(=O)N[C@H](C(=O)N[C@@H](Cc1ccc(O)cc1)C(=O)N[C@H](C(=O)N[C@@H](Cc1c[nH]cn1)C(=O)N1CCC[C@H]1C(=O)N[C@H](Cc1cccc2ccccc12)C(=O)O)C(C)C)C(C)C [Compound 1, Sar-Arg-Val-Tyr-Val-His-Pro-(D-1Nal)-OH] (HELM PEPTIDE1{[Sar].R.V.Y.V.H.P.[O=C(O)[C@@H](Cc1cccc2ccccc12)N[*:1]]}$$$$V2.0)
14 | 99 | 10.7 | 6 | CNCC(=O)N[C@@H](CCCNC(=N)N)C(=O)N[C@H](C(=O)N[C@@H](Cc1ccc(O)cc1)C(=O)N[C@H](C(=O)N[C@@H](Cc1c[nH]cn1)C(=O)N1CCC[C@H]1C(=O)N[C@H](Cc1ccccc1Cl)C(=O)O)C(C)C)C(C)C [Compound 4, Sar-Arg-Val-Tyr-Val-His-Pro-(D-Phe(2-Cl))—OH] (HELM PEPTIDE1{[Sar].R.V.Y.V.H.P.[O=C(O)[C@@H](Cc1ccccc1Cl)N[*:1]]}$$$$V2.0)
